From patent US11999739B2, “Antimicrobials methods of making and using the same” (BIOVERSYS AG, priority 2016, dated 2024)

Legend:
[1] = test system: Staphylococcus aureus (S. aureus) 11540 strain; assay: Standard microdilution MIC assay, S. aureus; type: cell-based
Method in brief: (§1)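 Broth microdilution per CLSI M7-A8 guidelines, with reference-strain quality control run in the same design; MIC determined per strain. Activity scored +/− against a 16 micrograms/mL cutoff.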

[2] = test system: Escherichia coli strain ATCC25922; assay: Standard microdilution MIC assay, E. coli; type: cell-based
Method in brief: as §1

Row | SMILES | MIC [1] | MIC [2]
1 | CC(=N)NCC[C@@H]1CCC[C@@H](c2ccc(-n3cc4cc(-c5cc(CCC[C@@H](N)C6CC6)cc(C(F)(F)F)c5F)[nH]c4nc3=O)cc2OC(F)(F)F)N1 [Compound 229] | ≤ 16 µg/mL | ≤ 16 µg/mL
2 | N=C(CF)NCC[C@@H]1CCC[C@@H](c2ccc(-n3cc4cc(-c5cc(CCC[C@@H](N)C6CC6)cc(Cl)c5F)[nH]c4nc3=O)cc2)N1 [Compound 86] | ≤ 16 µg/mL | ≤ 16 µg/mL
3 | CCCC(=N)NCC[C@@H]1CCC[C@@H](c2ccc(-n3cc4cc(-c5cc(CCC[C@H](C)N)cc(Cl)c5F)[nH]c4nc3=O)cc2SC)N1 [Compound 353] | ≤ 16 µg/mL | ≤ 16 µg/mL
4 | CC(=N)NCC[C@@H]1CCC[C@@H](c2ccc(-n3cc4cc(-c5cc(CCC[C@@H](N)CO)cc(Cl)c5F)[nH]c4nc3=O)cc2S(C)(=O)=O)N1 [Compound 118] | ≤ 16 µg/mL | ≤ 16 µg/mL
5 | COC(=O)c1ccc(-c2cc3cn(-c4ccc([C@@H]5CCC[C@@H](CCNC(C)=N)N5)cc4)c(=O)nc3[nH]2)cc1CCC[C@H](C)N [Compound 291] | ≤ 16 µg/mL | ≤ 16 µg/mL
6 | C=C[C@H](N)CCCc1cc(Cl)c(F)c(-c2cc3cn(-c4cc(F)c([C@@H]5CCC[C@@H](CCNC(C)=N)N5CCCF)c(SC)c4)c(=O)nc3[nH]2)c1 [Compound 350] | ≤ 16 µg/mL | ≤ 16 µg/mL
7 | CC(C)(CN)CCc1cc(Cl)c(F)c(-c2cc3cn(-c4ccc([C@@H]5CCC[C@@H](CCNC(=N)CF)N5)cc4)c(=O)nc3[nH]2)c1 [Compound 25] | ≤ 16 µg/mL | ≤ 16 µg/mL
8 | COC[C@H](N)CCCc1cc(OC(F)(F)F)c(F)c(-c2cc3cn(-c4cc(F)c([C@@H]5CCC[C@@H](CCNC(C)=N)N5)c(SC)c4)c(=O)nc3[nH]2)c1 [Compound 241] | ≤ 16 µg/mL | ≤ 16 µg/mL
9 | C=C[C@H](N)CCCc1cc(Cl)c(F)c(-c2cc3cn(-c4ccc([C@@H]5CCC[C@@H](CCNC(C)=N)N5CCCF)cc4)c(=O)nc3[nH]2)c1 [Compound 343] | ≤ 16 µg/mL | ≤ 16 µg/mL
10 | CC(=N)NCC[C@@H]1CCC[C@@H](c2ccc(-n3cc4cc(-c5cc(CCC[C@@H](N)CF)cc(Cl)c5F)[nH]c4nc3=O)cc2)N1C [Compound 137] | ≤ 16 µg/mL | ≤ 16 µg/mL
11 | CC(=N)NCCCN[C@@H](C)c1ccc(-n2cc3cc(-c4cc(CCCC5(N)CC5)cc(Cl)c4F)[nH]c3nc2=O)cc1F [Compound 148] | ≤ 16 µg/mL | ≤ 16 µg/mL
12 | CC(=N)NCC[C@@H]1COC[C@@H](c2ccc(-n3cc4cc(-c5cc(CCC[C@@H](N)CO)cc(Cl)c5F)[nH]c4nc3=O)cc2)N1 [Compound 54] | ≤ 16 µg/mL | ≤ 16 µg/mL
13 | CSc1cc(-n2cc3cc(-c4cc(CCC[C@@H](N)C5CC5)cc(C(F)(F)F)c4)[nH]c3nc2=O)ccc1[C@@H]1CCC[C@@H](CCNC(C)=N)N1CCCF [Compound 326] | ≤ 16 µg/mL | ≤ 16 µg/mL
14 | CC(=N)NCC[C@@H]1CCC[C@@H](c2ccc(-n3cc4cc(-c5cc(CCC[C@H](C)N)cc(Cl)c5F)[nH]c4nc3=O)cc2)N1CCn1ccnc1 [Compound 262] | ≤ 16 µg/mL | ≤ 16 µg/mL
15 | CSc1cc(-n2c(C)c3cc(-c4cc(CCC[C@@H](N)C5CC5)cc(Cl)c4F)[nH]c3nc2=O)ccc1[C@@H]1CCC[C@@H](CCNC(C)=N)N1 [Compound 335] | ≤ 16 µg/mL | ≤ 16 µg/mL
16 | C=C[C@H](N)CCCc1cc(Cl)c(F)c(-c2cc3cn(-c4ccc([C@@H]5CCC[C@@H](CCNC(C)=N)N5)c(C)c4)c(=O)nc3[nH]2)c1 [Compound 259] | ≤ 16 µg/mL | ≤ 16 µg/mL
17 | CC(=N)NCC[C@@H]1CCC[C@@H](c2ccc(-n3cc4cc(-c5ccc(C(F)(F)F)c(CCC[C@H](C)N)c5)[nH]c4nc3=O)cc2)N1 [Compound 287] | ≤ 16 µg/mL | ≤ 16 µg/mL
18 | CC(=N)NCCCN[C@@H](C)c1ccc(-n2cc3cc(-c4cc(CCC[C@@H](N)CF)cc(Cl)c4F)[nH]c3nc2=O)cc1F [Compound 107] | ≤ 16 µg/mL | ≤ 16 µg/mL
19 | CC(=N)NCC[C@H](CO)N[C@@H](C)c1ccc(-n2cc3cc(-c4cc(CCC[C@@H](N)CO)cc(Cl)c4F)[nH]c3nc2=O)cc1F [Compound 163] | ≤ 16 µg/mL | ≤ 16 µg/mL

The remaining lines, values ahead:

Row | MIC [1] | MIC [2] | SMILES
20 | ≤ 16 µg/mL | ≤ 16 µg/mL | CC(=N)NCCCN[C@@H](CO)c1ccc(-n2cc3cc(-c4cc(CCC[C@H](C)N)cc(Cl)c4F)[nH]c3nc2=O)cc1 [Compound 132]
21 | ≤ 16 µg/mL | ≤ 16 µg/mL | C[C@H](N)CCCc1cc(Cl)c(F)c(-c2cc3cn(-c4ccc([C@@H]5CNC[C@H](CCNC(=N)CF)O5)cc4)c(=O)nc3[nH]2)c1 [Compound 28]
22 | ≤ 16 µg/mL | ≤ 16 µg/mL | C=CCC(=N)NCCC(C=C)NCc1ccc(-n2cc3cc(-c4cc(CCC[C@H](C)N)cc(Cl)c4F)[nH]c3nc2=O)cc1 (stereo partly shown) [Compound 33]
23 | ≤ 16 µg/mL | ≤ 16 µg/mL | C=C[C@H](NCCCNC(C)=N)c1ccc(-n2cc3cc(-c4cc(CCC[C@@H](N)C5CC5)cc(Cl)c4F)[nH]c3nc2=O)cc1 [Compound 266]
24 | ≤ 16 µg/mL | ≤ 16 µg/mL | CC(=N)NCCCN[C@H](c1ccc(-n2cc3cc(-c4cc(CCC[C@H](C)N)cc(Cl)c4F)[nH]c3nc2=O)cc1)C(F)(F)F [Compound 130]
25 | ≤ 16 µg/mL | ≤ 16 µg/mL | C=C[C@@H](N)CCCc1cc(Cl)c(F)c(-c2cc3cn(-c4ccc([C@H](C)N[C@@H](C=C)CCNC(C)=N)cc4)c(=O)nc3[nH]2)c1 [Compound 149]
26 | ≤ 16 µg/mL | ≤ 16 µg/mL | CC(=N)NCC[C@@H](NCc1ccc(-n2cc3cc(-c4cc(CCC[C@@H](N)CF)cc(Cl)c4F)[nH]c3nc2=O)cc1)C1CC1 [Compound 218]
27 | ≤ 16 µg/mL | ≤ 16 µg/mL | CC(=N)NCCCN[C@@H](C)c1ccc(-n2cc3cc(-c4cc(CCC[C@@H](N)C(F)(F)F)cc(Cl)c4F)[nH]c3nc2=O)cc1 [Compound 102]
28 | ≤ 16 µg/mL | ≤ 16 µg/mL | C=C[C@H](N)CCCc1cc(Cl)c(F)c(-c2cc3cn(-c4ccc(CN[C@@H](C=C)CCNC(C)=N)cc4)c(=O)nc3[nH]2)c1 [Compound 101]
29 | ≤ 16 µg/mL | ≤ 16 µg/mL | CC(=N)NCC[C@H](CO)NCc1ccc(-n2cc3cc(-c4cc(CCC[C@H](C)N)cc(Cl)c4F)[nH]c3nc2=O)cc1 [Compound 18]
30 | ≤ 16 µg/mL | ≤ 16 µg/mL | C=CC(CCNC(=N)CF)NCc1ccc(-n2cc3cc(-c4cc(CCCC(C)(C)N)cc(Cl)c4F)[nH]c3nc2=O)cc1 (stereo not shown) [Compound 22]
31 | ≤ 16 µg/mL | ≤ 16 µg/mL | C=C[C@@H](CCNC(C)=N)NCc1ccc(-n2cc3cc(-c4cc(CCC(F)(F)CN)cc(Cl)c4F)[nH]c3nc2=O)cc1 [Compound 105]
32 | ≤ 16 µg/mL | ≤ 16 µg/mL | C=C[C@H](NCCCNC(C)=N)c1ccc(-n2cc3cc(-c4cc(CCC[C@@H](N)C=C)cc(Cl)c4F)[nH]c3nc2=O)cc1 [Compound 265]
33 | ≤ 16 µg/mL | ≤ 16 µg/mL | CC(=N)NC[C@@H]1CCC[C@@H](c2ccc(-n3cc4cc(-c5cc(CCC[C@H](C)N)cc(Cl)c5F)[nH]c4nc3=O)cc2)N1 [Compound 363]
34 | ≤ 16 µg/mL | ≤ 16 µg/mL | C=C[C@H](NCCCNC(C)=N)c1ccc(-n2cc3cc(-c4cc(CCC[C@H](C)N)cc(Cl)c4F)[nH]c3nc2=O)cc1 [Compound 161]
35 | ≤ 16 µg/mL | ≤ 16 µg/mL | C=C[C@H](N)CCCc1cc(Cl)c(F)c(-c2cc3cn(-c4ccc(CN[C@@H](CO)CCNC(C)=N)cc4)c(=O)nc3[nH]2)c1 [Compound 83]
